Measurements from ChEMBL document CHEMBL4351032, “Design, synthesis, and biological evaluation of 4-((6,7-dimethoxyquinoline-4-yl)oxy)aniline derivatives as FLT3 inhibitors for the treatment of acute myeloid leukemia” (Bioorg Med Chem Lett, 2019).

How the values were obtained:
[1] = biological target: T1, Receptor-type tyrosine-protein kinase FLT3 (Homo sapiens, UniProt P36888); experiment: Inhibition of FLT3 (unknown origin)
T1 sequence (P36888 whole entry): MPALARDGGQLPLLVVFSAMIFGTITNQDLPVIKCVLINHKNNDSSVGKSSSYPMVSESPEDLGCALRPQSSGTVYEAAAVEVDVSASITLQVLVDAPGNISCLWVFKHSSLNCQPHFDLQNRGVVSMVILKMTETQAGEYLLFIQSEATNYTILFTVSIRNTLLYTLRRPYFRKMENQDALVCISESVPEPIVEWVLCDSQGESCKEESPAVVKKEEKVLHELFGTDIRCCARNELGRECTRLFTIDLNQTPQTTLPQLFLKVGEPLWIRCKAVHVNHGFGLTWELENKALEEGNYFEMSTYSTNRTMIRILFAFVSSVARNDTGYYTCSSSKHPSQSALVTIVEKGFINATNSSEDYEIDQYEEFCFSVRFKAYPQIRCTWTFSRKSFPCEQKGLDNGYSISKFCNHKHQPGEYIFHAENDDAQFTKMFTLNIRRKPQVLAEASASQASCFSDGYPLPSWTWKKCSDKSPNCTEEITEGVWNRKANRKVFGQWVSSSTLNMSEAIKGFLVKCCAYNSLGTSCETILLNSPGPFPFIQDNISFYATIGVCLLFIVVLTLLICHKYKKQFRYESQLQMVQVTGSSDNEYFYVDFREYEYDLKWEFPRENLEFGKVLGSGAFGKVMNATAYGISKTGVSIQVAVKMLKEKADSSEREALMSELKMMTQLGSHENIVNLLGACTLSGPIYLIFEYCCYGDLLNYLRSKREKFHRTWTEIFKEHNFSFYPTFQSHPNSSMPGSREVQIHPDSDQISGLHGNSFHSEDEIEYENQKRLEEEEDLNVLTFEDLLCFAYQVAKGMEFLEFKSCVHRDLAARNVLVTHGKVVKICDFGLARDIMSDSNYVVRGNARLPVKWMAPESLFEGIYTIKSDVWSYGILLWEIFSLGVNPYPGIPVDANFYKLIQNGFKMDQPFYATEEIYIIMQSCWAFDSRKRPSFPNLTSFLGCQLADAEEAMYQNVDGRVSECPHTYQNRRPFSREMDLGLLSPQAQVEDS

[2] = system: HL-60; experiment: Antiproliferative activity against human HL60 cells harboring wild type FLT3 assessed as inhibition of cell growth incubated for 72 hrs by CCK-8 assay; type: functional, cell-based; details: HL-60, 72 h
[3] = system: MV4-11; experiment: Antiproliferative activity against human MV4-11 cells harboring FLT3-ITD assessed as inhibition of cell growth incubated for 72 hrs by CCK-8 assay; type: functional, cell-based; details: MV4-11, 72 h
[4] = biological target: T1, Receptor-type tyrosine-protein kinase FLT3; experiment: Inhibition of FLT3 (unknown origin) using peptide as substrate preincubated with enzyme for 10 mins followed by substrate addition further incubated for 1 hr by mobility shift assay
[5] = system: HL-60; experiment: Potency index, ratio of cabozantinib IC50 to compound IC50 for human HL60 cells incubated for 72 hrs by CCK-8 assay; type: functional

| Structure (SMILES) | IC50 [1] | IC50 [2] | IC50 [3] | IC50 [4] | Ratio IC50 [5] |
| --- | --- | --- | --- | --- | --- |
| COc1cc2c(Oc3ccc(NC(=O)c4nn(-c5ccccc5)c(=O)cc4C)cc3F)ccnc2cc1OCCCN1CCOCC1 | 0.00928 µM | – | – | – | – |
| COc1cc2nccc(Oc3ccc(N/C(=N/c4ccc(F)cc4)C(F)(F)F)cc3)c2cc1OC | – | 48.9 µM | – | – | – |
| COc1ccc(/N=C(/Nc2ccc(Oc3ccnc4cc(OC)c(OC)cc34)cc2)C(F)(F)F)cc1 | – | 36.2 µM | – | – | – |
| COc1cccc(-n2cc(/C=N/NC(=O)Nc3ccc(Oc4ccnc5cc(OC)c(OC)cc45)cc3)nn2)c1 | – | 18.8 µM | 13.8 µM | > 1 µM | – |
| COc1cc2nccc(Oc3ccc(N/C(=N/c4ccc(C)cc4)C(F)(F)F)cc3)c2cc1OC | – | 46.2 µM | – | – | – |
| COc1cc2nccc(Oc3ccc(N/C(=N/c4ccc(Cl)c(C(F)(F)F)c4)C(F)(F)F)cc3)c2cc1OC | – | > 50 µM | – | – | – |
| COc1cc2nccc(Oc3ccc(N/C(=N/c4ccc([N+](=O)[O-])cc4)C(F)(F)F)cc3)c2cc1OC | – | > 50 µM | – | – | – |
| COc1cc2nccc(Oc3ccc(N/C(=N/c4cccc(Cl)c4)C(F)(F)F)cc3)c2cc1OC | – | > 50 µM | – | – | – |
| COc1cc2nccc(Oc3ccc(N/C(=N/c4cccc(C(F)(F)F)c4)C(F)(F)F)cc3)c2cc1OC | – | > 50 µM | – | – | – |
| COc1cc2nccc(Oc3ccc(NC(=O)N/N=C/c4cn(-c5ccc(F)cc5)nn4)cc3)c2cc1OC | – | 21.7 µM | 21.4 µM | – | – |
| COc1cc2nccc(Oc3ccc(N/C(=N/c4ccc(Cl)c(Cl)c4)C(F)(F)F)cc3)c2cc1OC | – | > 50 µM | – | – | – |
| COc1cc2nccc(Oc3ccc(NC(=O)N/N=C/c4cn(-c5cccc(C(F)(F)F)c5)nn4)cc3)c2cc1OC | – | > 50 µM | 49.1 µM | – | – |
| COc1cc2nccc(Oc3ccc(N/C(=N/c4ccc(OC(F)(F)F)cc4)C(F)(F)F)cc3)c2cc1OC | – | 32.7 µM | – | – | – |
| COc1cc2nccc(Oc3ccc(NC(=O)N/N=C/c4cn(-c5ccccc5OC)nn4)cc3)c2cc1OC | – | 14.2 µM | 8.29 µM | 0.312 µM | – |
| COc1cc2nccc(Oc3ccc(N/C(=N/c4ccccc4)C(F)(F)F)cc3)c2cc1OC | – | 44.6 µM | – | – | – |
| COc1ccc(-n2cc(/C=N/NC(=O)Nc3ccc(Oc4ccnc5cc(OC)c(OC)cc45)cc3)nn2)cc1 | – | 19.3 µM | 16.3 µM | – | – |
| COc1cc2nccc(Oc3ccc(NC(=O)C4(C(=O)Nc5ccc(F)cc5)CC4)cc3)c2cc1OC [CABOZANTINIB] | – | 22.5 µM | 15.2 µM | – | – |

Now from value to compound, other results behind:

| IC50 [1] | IC50 [2] | IC50 [3] | IC50 [4] | Structure (SMILES) | Ratio IC50 [5] |
| --- | --- | --- | --- | --- | --- |
| – | > 50 µM | > 50 µM | – | COc1cc2nccc(Oc3ccc(NC(=O)N/N=C/c4cn(-c5ccccc5Br)nn4)cc3)c2cc1OC | – |
| – | 21.1 µM | 13.4 µM | > 1 µM | COc1cc2nccc(Oc3ccc(NC(=O)N/N=C/c4cn(-c5cccc(Cl)c5)nn4)cc3)c2cc1OC | – |
| – | 8.91 µM | 5.8 µM | 0.384 µM | COc1cc2nccc(Oc3ccc(NC(=O)N/N=C/c4cn(-c5cccc(F)c5)nn4)cc3)c2cc1OC | 2.52 |
| – | > 50 µM | 48.4 µM | – | COc1cc2nccc(Oc3ccc(NC(=O)N/N=C/c4cn(-c5ccccc5Cl)nn4)cc3)c2cc1OC | – |
| – | 25.7 µM | 19.3 µM | – | COc1cc2nccc(Oc3ccc(NC(=O)N/N=C/c4cn(-c5cccc(C)c5)nn4)cc3)c2cc1OC | – |
| – | 16.4 µM | 13.6 µM | > 1 µM | COc1cc2nccc(Oc3ccc(NC(=O)N/N=C/c4cn(-c5ccccc5F)nn4)cc3)c2cc1OC | – |
| – | 41.3 µM | 38.7 µM | – | COc1cc2nccc(Oc3ccc(NC(=O)N/N=C/c4cn(-c5ccccc5)nn4)cc3)c2cc1OC | – |
